Here are results for ten compounds from ChEMBL document CHEMBL1132906, “Squalamine analogues as potential anti-trypanosomal and anti-leishmanial compounds” (2000).

A short description of test [1]: The compound was evaluated for its toxicity against KB cells. Format: functional. The conditions noted are these: Homo sapiens, read-out: ED50 (the source's name).
Test [2] concerns Leishmania donovani. As to the kind of experiment: The compound was evaluated for its inhibitory activity against Leishmania donovani. Type of test: functional. To be noted: read-out: ED50 (the source's name).
Test [3] has as its system Trypanosoma cruzi. Briefly: The compound was evaluated for its inhibitory activity against Trypanosoma cruzi. The conditions noted are these: read-out: ED50 (the source's name). Type of test: functional.
The test system of test [4] is Trypanosoma brucei. As to the kind of experiment: The compound was evaluated for its inhibitory activity against Trypanosoma brucei. The conditions noted are these: read-out: ED50 (the source's name). Format: functional.
Test [5] relates to Mus musculus. As to the kind of experiment: Inhibitory activity (in vivo) against mice infected with Trypanosoma rhodesiense after intraperitoneal administration of compound (50 mg/kg for 4 days); No effect. Type of test: functional, organism-based.
The test system of test [6] is Mus musculus. As to the kind of experiment: Percent reduction (in vivo) against mice infected with Leishmania donovani after intraperitoneal administration of compound (50 mg/kg for 5 days). Format: functional.
In test [7] the test system is Trypanosoma cruzi. Briefly: The compound was evaluated for its inhibitory activity against Trypanosoma cruzi (toxic effect on macrophages). Format: functional. To be noted: read-out: ED50 (the source's name).
Test [8] deals with Trypanosoma brucei. Briefly: The compound was evaluated for the inhibition of Trypanosoma brucei at 1 (ug/ml). Format: functional.
The subject of test [9] is Trypanosoma brucei. As to the kind of experiment: The compound was evaluated for its inhibitory activity against Trypanosoma brucei (indicate results of two experiments). Format: functional. The conditions noted are these: read-out: ED50 (the source's name).

“And” between values parts separate entries of the source, which are not always exact repeats. Equal values may be shown once. The source made the active and inactive calls. The calls are words filed in the database; no cut-off is given here.

Turning to `CC(=O)O[C@H]1CC[C@@]2(C)C(=CCC3C2CC[C@@]2(C)C3CC[C@@H]2C(C)C(=O)NCCCN(CCCCN(CCCNC(=O)OC(C)(C)C)C(=O)OC(C)(C)C)C(=O)OC(C)(C)C)C1` (stereo partly drawn), the EC50 in test [1] was 31 µM; in test [2], 4.7 µM; in test [3], more than 34 µM; in test [4] (Trypanosoma brucei) it was 1.1 µM; in test [4] it was 0.57 µM.

Take `CC(C(=O)NCCCNCCCCNCCCN)[C@H]1CCC2C3CC=C4C[C@@H](O)CC[C@]4(C)C3CC[C@@]21C` (stereo partly drawn): the EC50 in [1] was 15 µM; in test [2], 5 µM; in [7], more than 57 µM; in test [4] (Trypanosoma brucei), 0.56 µM; in test [4], 1.1 µM. The result in test [5] was inactive. This compound also had a Reduction in test [6] of 16%.

Regarding `N=C(N)c1ccc(OCCCCCOc2ccc(C(=N)N)cc2)cc1` [PENTAMIDINE], the Inhibition (as a rule, the percentage by which the read-out fell short of the control) in test [8] is recorded as 100%.

For `CC(=O)O[C@H]1CC[C@@]2(C)C(=CCC3C2CC[C@@]2(C)C3CC[C@@H]2C(C)C(=O)NCCCN(CCCCNC(=O)OC(C)(C)C)C(=O)OC(C)(C)C)C1` (stereo partly drawn), the EC50 was 111 µM in [1], 17.3 µM in test [2], more than 42 µM in test [3] and 2.6 µM in test [9].

Turning to `O=C(Cn1ccnc1[N+](=O)[O-])NCc1ccccc1` [BENZNIDAZOLE], in [3], the EC50 amounted to 7.45 µg/mL.

Consider `CC(C(=O)NCCCN(CCCCNC(=O)OC(C)(C)C)C(=O)OC(C)(C)C)[C@H]1CCC2C3CC=C4C[C@@H](OS(=O)(=O)O)CC[C@]4(C)C3CC[C@@]21C` (stereo partly drawn), for which the EC50 in test [1] was more than 360 µM; in test [2], 4.9 µM; in [7], more than 36 µM; in test [9], more than 36 µM.

As for `CC(C(=O)NCCCN(CCCCN(CCCNC(=O)OC(C)(C)C)C(=O)OC(C)(C)C)C(=O)OC(C)(C)C)[C@H]1CCC2C3CC=C4C[C@@H](O)CC[C@]4(C)C3CC[C@@]21C` (stereo partly drawn), the EC50 is 27 µM in [1], 12.6 µM in test [2], more than 36 µM in [3] and 0.6 µM in test [9].

As to `CC(C(=O)NCCCNCCCCN)[C@H]1CCC2C3CC=C4C[C@@H](O)CC[C@]4(C)C3CC[C@@]21C` (stereo partly drawn), the EC50 in test [1] was 3.3 µM; in [2] it was 44.7 µM; in test [7] it was more than 63 µM; in test [4], 1.9 µM and 0.63 µM.

Take `CC(C(=O)NCCCNCCCCN)[C@H]1CCC2C3CC=C4C[C@@H](OS(=O)(=O)O)CC[C@]4(C)C3CC[C@@]21C` (stereo partly drawn): the EC50 in test [1] was more than 526 µM; in [2], 39.9 µM; in test [3], 13.5 µM; in test [9], more than 53 µM.

`CC(C(=O)NCCCN(CCCCNC(=O)OC(C)(C)C)C(=O)OC(C)(C)C)[C@H]1CCC2C3CC=C4C[C@@H](O)CC[C@]4(C)C3CC[C@@]21C` (stereo partly drawn): the EC50 is 65 µM in test [1]; 25.7 µM in test [2]; more than 15 µM in test [7]; 4.7 µM and 1.5 µM in [4].
